The record followed here is patent US10479795B2 (Incyte Corporation, priority 2016, dated 2019).

Each structure is given as a SMILES string. Counter-ions that a name gives are not always drawn. Like-named read-outs stand apart in the source and are kept apart here. Some results are limits rather than exact numbers.

The test system of test [1] is Phosphorylated Ribosomal Protein S6 (RPS6). Put plainly: THP-1 RPS6 ELISA Assay. The class given is cell-based, Human. The settings on record: THP-1 cells, read-out: PI3Kγ_THP1_RPS6_ELISA IC50. A digest of the protocol: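 Serum-starved THP-1 cells were preincubated with a concentration range of compound for 2 h at 37 °C, then stimulated with 10 nM MCP-1 for 15 min. Phospho-RPS6 in lysates was quantified by ELISA at 450 nm. IC50 came from percent inhibition versus log inhibitor concentration.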
On the technique in general: In an ELISA, binding on a coated surface is turned into a signal by an enzyme label.

For test [2], the target named is PI3Kδ (p110δ/p85α) Recombinant Human Protein (Homo sapiens (Human), UniProt O00329). The test can be described thus: PI3Kδ Scintillation Proximity Assay. The class given is biochemical. In outline: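 Kinase reaction run at room temperature in 20 mM MOPS pH 6.7, 10 mM MgCl2, 5 mM DTT, 0.03% CHAPS with 20 μM PIP2, 2 μM ATP plus [γ-33P]ATP, 3.4 nM enzyme, 2% DMSO; 120 min. Quenched with WGA SPA beads/EDTA, counted by scintillation; IC50 from % solvent-control activity vs log concentration.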

Test [3] deals with PI3Kγ (p110γ) Recombinant Human Protein (Homo sapiens (Human), UniProt P48736). Put plainly: PI3K-γ Scintillation Proximity Assay. The following applies: read-out: PI3Kγ IC50. The class given is biochemical. In outline: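 Recombinant human p110γ assayed at room temperature in 20 mM MOPS pH 6.7, 10 mM MgCl2, 5 mM DTT, 0.03% CHAPS, 2% DMSO, with 20 μM PIP2 and 2 μM ATP plus [γ-33P]ATP. Product captured on WGA SPA beads overnight and counted; IC50 fitted from % of solvent-control activity versus log inhibitor concentration.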
PI3Kγ (p110γ) Recombinant Human Protein, sequence (P48736 whole entry): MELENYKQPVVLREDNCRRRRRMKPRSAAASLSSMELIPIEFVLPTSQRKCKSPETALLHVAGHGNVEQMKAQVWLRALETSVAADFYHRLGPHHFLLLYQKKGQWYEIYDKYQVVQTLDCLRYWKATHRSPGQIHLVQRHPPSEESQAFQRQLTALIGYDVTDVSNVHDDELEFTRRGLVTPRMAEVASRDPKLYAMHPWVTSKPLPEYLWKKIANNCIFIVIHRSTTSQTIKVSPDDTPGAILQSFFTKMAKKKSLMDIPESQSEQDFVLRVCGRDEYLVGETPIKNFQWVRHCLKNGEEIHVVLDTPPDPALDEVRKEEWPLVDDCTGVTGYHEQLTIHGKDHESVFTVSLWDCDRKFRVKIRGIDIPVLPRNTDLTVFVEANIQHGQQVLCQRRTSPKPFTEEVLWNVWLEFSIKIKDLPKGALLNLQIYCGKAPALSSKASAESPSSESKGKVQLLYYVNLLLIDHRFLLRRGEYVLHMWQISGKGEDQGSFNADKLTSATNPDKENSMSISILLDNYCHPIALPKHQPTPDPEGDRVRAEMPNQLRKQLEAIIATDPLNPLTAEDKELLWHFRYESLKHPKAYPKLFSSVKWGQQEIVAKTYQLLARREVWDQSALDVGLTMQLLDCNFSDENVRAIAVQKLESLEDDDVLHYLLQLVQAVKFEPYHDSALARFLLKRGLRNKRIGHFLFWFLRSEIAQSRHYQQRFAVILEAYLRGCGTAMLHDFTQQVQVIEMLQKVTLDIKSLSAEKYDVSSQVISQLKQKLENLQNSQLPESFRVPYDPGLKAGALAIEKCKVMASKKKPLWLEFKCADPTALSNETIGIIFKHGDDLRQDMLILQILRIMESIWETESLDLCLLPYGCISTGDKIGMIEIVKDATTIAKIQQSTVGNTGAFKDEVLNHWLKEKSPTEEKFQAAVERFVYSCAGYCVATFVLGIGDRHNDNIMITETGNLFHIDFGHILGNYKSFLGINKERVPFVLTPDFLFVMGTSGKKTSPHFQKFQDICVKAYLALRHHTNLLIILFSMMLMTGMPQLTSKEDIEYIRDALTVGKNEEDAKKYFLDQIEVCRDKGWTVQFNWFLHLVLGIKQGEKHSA

PI3Kδ (p110δ/p85α) Recombinant Human Protein, sequence (O00329 whole entry): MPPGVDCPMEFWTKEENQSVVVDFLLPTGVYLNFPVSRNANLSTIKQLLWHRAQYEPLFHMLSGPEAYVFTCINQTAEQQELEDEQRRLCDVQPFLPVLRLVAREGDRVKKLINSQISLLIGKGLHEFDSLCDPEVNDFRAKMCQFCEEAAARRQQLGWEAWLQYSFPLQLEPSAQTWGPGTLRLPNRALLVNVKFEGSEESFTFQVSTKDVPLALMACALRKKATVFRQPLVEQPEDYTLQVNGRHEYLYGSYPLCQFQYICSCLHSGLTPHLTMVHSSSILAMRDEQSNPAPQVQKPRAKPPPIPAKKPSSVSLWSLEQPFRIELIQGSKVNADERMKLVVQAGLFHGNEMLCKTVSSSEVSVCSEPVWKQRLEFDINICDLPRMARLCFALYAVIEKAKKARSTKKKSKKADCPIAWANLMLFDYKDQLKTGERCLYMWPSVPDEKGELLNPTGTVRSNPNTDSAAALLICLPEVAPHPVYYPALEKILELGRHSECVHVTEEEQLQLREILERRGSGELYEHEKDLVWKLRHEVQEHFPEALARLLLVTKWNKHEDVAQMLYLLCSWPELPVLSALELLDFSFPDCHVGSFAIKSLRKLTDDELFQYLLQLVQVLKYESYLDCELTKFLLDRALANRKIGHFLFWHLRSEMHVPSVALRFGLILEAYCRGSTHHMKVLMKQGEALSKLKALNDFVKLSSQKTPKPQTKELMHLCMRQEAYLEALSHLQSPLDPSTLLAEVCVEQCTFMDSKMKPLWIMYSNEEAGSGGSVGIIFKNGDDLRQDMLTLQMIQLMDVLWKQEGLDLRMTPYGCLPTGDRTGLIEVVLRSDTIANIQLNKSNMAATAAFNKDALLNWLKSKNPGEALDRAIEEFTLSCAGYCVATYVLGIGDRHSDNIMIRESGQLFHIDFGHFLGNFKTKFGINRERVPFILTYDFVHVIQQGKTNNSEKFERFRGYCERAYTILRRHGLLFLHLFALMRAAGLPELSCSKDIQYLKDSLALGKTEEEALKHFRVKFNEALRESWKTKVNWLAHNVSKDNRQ
PI3Kδ (p110δ/p85α) Recombinant Human Protein, sequence (P27986 whole entry partner): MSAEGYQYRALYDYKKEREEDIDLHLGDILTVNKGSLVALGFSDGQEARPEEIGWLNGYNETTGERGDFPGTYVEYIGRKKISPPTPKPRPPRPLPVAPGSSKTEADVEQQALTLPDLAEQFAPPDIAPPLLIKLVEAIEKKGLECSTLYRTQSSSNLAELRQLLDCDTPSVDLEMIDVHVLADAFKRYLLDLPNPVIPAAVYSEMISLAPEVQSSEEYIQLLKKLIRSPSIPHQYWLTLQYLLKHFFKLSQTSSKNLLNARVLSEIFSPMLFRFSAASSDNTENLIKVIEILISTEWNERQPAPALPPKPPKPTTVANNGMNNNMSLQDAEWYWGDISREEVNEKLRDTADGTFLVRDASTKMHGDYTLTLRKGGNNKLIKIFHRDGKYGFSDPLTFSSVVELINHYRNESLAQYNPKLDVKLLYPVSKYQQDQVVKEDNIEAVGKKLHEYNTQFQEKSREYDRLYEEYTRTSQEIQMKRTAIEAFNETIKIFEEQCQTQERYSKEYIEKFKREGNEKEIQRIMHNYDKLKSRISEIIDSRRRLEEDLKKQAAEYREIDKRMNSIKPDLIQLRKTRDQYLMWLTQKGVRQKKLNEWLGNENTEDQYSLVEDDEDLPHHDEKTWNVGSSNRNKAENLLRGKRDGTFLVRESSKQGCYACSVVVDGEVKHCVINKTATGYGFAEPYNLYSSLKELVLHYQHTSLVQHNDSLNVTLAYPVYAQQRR

`Cc1ccc(S(=O)(=O)NCC2(C#N)CC2)cc1-c1cnc2c(N)ncnn12` [Example 101, 3-(4-Aminoimidazo[1,2-f][1,2,4]triazin-7-yl)-N-((1-cyanocyclopropyl)methyl)-4-methylbenzenesulfonamide trifluoroacetate salt]: the IC50 in test [1] is over 1000 nM; in test [2] it was 500 to 2000 nM; in test [3], under 100 nM.

In the case of `Cc1ccc(S(=O)(=O)NC2CCOCC2)cc1-c1cnc2c(N)nccn12` [Example 49, 3-(8-Aminoimidazo[1,2-a]pyrazin-3-yl)-4-methyl-N-(tetrahydro-2H-pyran-4-yl)benzenesulfonamide], the IC50 in test [1] (Homo sapiens) was over 1000 nM; in test [2], 500 to 2000 nM; in test [3], under 100 nM.

As for `Cc1ccc(S(=O)(=O)N2CCCC(C(=O)O)C2)cc1-c1cnc2c(N)nc(C(F)(F)F)cn12` (stereo not drawn) [Example 510, 1-((3-(8-Amino-6-(trifluoromethyl)imidazo[1,2-a]pyrazin-3-yl)-4-methylphenyl)sulfonyl)piperidine-3-carboxylic acid trifluoroacetate], the figures for the half-inhibitory concentration (IC50) in test [1] (Homo sapiens), in test [2] and in test [3] were over 1000 nM, 100 to 500 nM and under 100 nM, respectively.

Regarding `Cc1ccc(S(=O)(=O)N2CCC3(CCCOC3)C2)cc1-c1cnc2c(N)ncnn12` (stereo not drawn) [Example 203, 7-(5-((7-Oxa-2-azaspiro[4.5]decan-2-yl)sulfonyl)-2-methylphenyl)imidazo[2,1-f][1,2,4]triazin-4-amine], the figures for the half-inhibitory concentration (IC50) in test [1] (Homo sapiens), in test [2] and in test [3] were 500 to 1000 nM, 100 to 500 nM and under 100 nM, respectively.

Usually IC50 stands for the concentration that gives 50% inhibition.
